Data reported in US9018251B2, “Method for treating brain cancer or reducing temozolomide-resistance of brain cancer cells” (China Medical University, priority 2011, dated 2015).
pIC50: −log10 of the molar value. Like-named read-outs stand apart in the source and are kept apart here.

How the values were obtained:
[1] = system: brain cancer cell line DBTRG; experiment: MTT cell viability assay, DBTRG; format: cell-based; conditions: for viability at 500 µM: Concentration 500 μM; for pIC50: 48 h, read-out: IC50 value
Procedure: (§1) The MTT (3-[4,5-dimethylthiahiazo-2-yl]-2,4-dipheny-tetrazolium bromide) cell viability assay was used to study the mortality effect of temozolomide to various brain cancer cell lines. (See Pauwels et al., J. Virol. Methods, 1988, 20, 309-321 for the MTT cell viability assay, which is incorporated hereinto by reference).
The cell viability rate and mortality rate were calculated based on the absorbance.

MGMT [2] = experiment: MGMT RNA expression (RT-PCR, gel electrophoresis) in 8901; format: cell-based; conditions: as concentration increased, treated 3 to 48 hours, FIG. 3
Procedure: (§2) Brain cancer cell lines 8901 and GBM22-TMZ with temozolomide-resistance were cultured in a petri dish with a diameter of 10 cm, respectively. A PBS solution was used to rinse the cells after the cell proliferation reached to 60% by volume of the dish. (Z)-butylidenephthalide or (E)-butylidenephthalide was added to treat the cells for 3 to 48 hours, and then the cells were collected. The total RNA of the cells was extracted and reverse transcribed into cDNA (using 50 micro-mole of […] and 50 pico-mole of random hexamers primer). One unit of ExTaq DNA polymerase, 200 nM dNTP (1 μL), and 2.5 mM of MgCl2 (1 μL) were added, and then 20 mM of MGMT nucleotide primers (1 μL each) and 50 μL of water were added.
The sample was placed into a polymerase chain reaction (PCR) system (GeneAmp PCR System 2400, Perkin Elmer, USA). The condition was set as: denaturing, 94° C., 30 s; annealing, 55° C., 30 s; extension, […]; 30 cycles; and finally 72° C., 10 minutes. Afterwards, the system temperature was decreased to 4° C. to terminate the reaction. The product from the PCR was analysed by a 1.5% gel electrophoresis. The gel was analysed by Fluoro-Chem imaging system (Alpha InnoTech Cooperation) to determine the expression level of MGMT gene.

MGMT [3] = experiment: MGMT protein expression (SDS-PAGE, western blotting) in 8901; format: cell-based; conditions: as concentration increased, treated 3 to 48 hours, FIG. 4
Procedure: as §2
(§3) In another aspect, the intracellular proteins of the aforesaid brain cancer cell lines 8901 and GBM22-TMZ were collected. SDS-PAGE and western blotting were used to analyze the expression of the MGMT protein in the brain cancer cell lines.

[4] = system: brain cancer cell line 8401; experiment: MTT cell viability assay, 8401; format: cell-based
Description: as §1

[5] = system: brain cancer cell line GBM22-TMZ; experiment: MTT cell viability assay, GBM22-TMZ (with CalcuSyn combination index); conditions: Homo sapiens, 48 h
Procedure: In a 96-microwell plate, each well was cultured with 3×10^3 cells of brain cancer cell line 8901 which have temozolomide-resistance. The next day, different concentrations of temozolomide (0 to 1200 μM, 200 μL) or the combination of temozolomide and (Z)-butylidenephthalide (0 to 200 μM, 200 μL) were dropped into the well along the interior wall of the plate. Four microwell plates were used for each analysis, and four wells were used for each combination of various drug concentrations. A solvent was placed into the first row as the control group. After the cells were cultured for 2 days, the culture solution was drawn and discarded, and a culture solution containing 500 μg/mL of MTT (200 μL) was added to culture for another 4 hours. The culture solution was drawn and discarded, and 200 μL of DMSO was added, and then the microwell plate spectrometer was used to measure the absorbance of the cells at a wavelength of 570 nm. The cell viability rate and mortality rate and the concentrations of temozolomide that reached the mortality rate of 50% of various brain cancer cell lines (IC50) were calculated based on the absorbance.
In a 96-microwell plate, each well was cultured with 3×10^3 cells of brain cancer cell line 8901 or GBM22-TMZ with temozolomide-resistance. […] The microwell plate spectrometer was then used to measure the absorbance of the cells at a wavelength of 570 nm. […]

[6] = system: brain cancer cell line GBM22-TMZ; experiment: In vivo subcutaneous tumor transplant test; parameters: species or system Balb/c nude mice; conditions: 28th day
Procedure: An in vivo test was carried out by a subcutaneous tumor transplant mode to observe the anti-tumor activity of (Z)-butylidenephthalide, temozolomide, or their combination in vivo.
First, 2×10^6 cells of brain cancer cell line GBM22-TMZ with temozolomide-resistance were cultured sterilely and subcutaneously injected to Balb/c nude mice (purchased from the National Laboratory Animal Center, Taiwan) to carry out the in vivo tumor transplant experiment. When the tumor was grown to 100 mm^3 (length×width×width/2), the subcutaneous administration was carried out for treatment. On the contralateral side of the tumor tissue, at a position more than 1.5 cm, (Z)-butylidenephthalide was injected, or temozolomide was orally administrated, once per day consecutively for 5 days. In the treatment group in which (Z)-butylidenephthalide and temozolomide were administrated in combination, (Z)-butylidenephthalide was first subcutaneously administrated (SC), and 2 hours later, temozolomide was orally administrated (PO). After administration on the 5th day, the tumor size and the body weight of the mice were observed continuously for 28 days, and were measured every 3 days. The measurement value of the tumor size on the 28th day was used as the assessment result of the inhibiting activity on tumor growth. The smaller the value, the better the inhibition effect. […] There was a significant difference when P value was less than […]. The results are shown in Table 7, and FIGS. 11A and 11B.

[7] = system: brain cancer cell line G5T/VGH; experiment: MTT cell viability assay, G5T/VGH; format: cell-based
Description: as §1

[8] = system: brain cancer cell line GBM22-TMZ; experiment: In vivo survival analysis, glioblastoma orthotopic xenografts; parameters: species or system Mice
Procedure: A survival analysis was carried out to investigate the antiglioma effect of the combination of (Z)-butylidenephthalide and temozolomide in vivo. Mice with established glioblastoma orthotopic xenografts from brain cancer cell line GBM22-TMZ were randomized to carry out the therapy with indicated temozolomide (66 mg/kg/day; 5 days), (Z)-butylidenephthalide (50 or 100 mg/kg/day; 5 days), or combinations thereof. Observation was recorded until the mice reached a moribund state, and survival results are shown as Kaplan-Meier survival curves.

MGMT [9] = experiment: MGMT protein expression (SDS-PAGE, western blotting) in GBM22-TMZ; format: cell-based, human; conditions: as concentration increased, FIG. 5
Procedure: as §2, §3

[10] = system: brain cancer cell line 8901; experiment: MTT cell viability assay, 8901 (with CalcuSyn combination index); format: cell-based; conditions: for pIC50: 48 h, single agent, cultured 2 days, MTT
Description: as §1

[11] = read-out: Viability rate of DBTRG(%)
[12] = 48 h, single agent, cultured 2 days, MTT

`CCC/C=C1/OC(=O)c2ccccc21` [(E)-butylidenephthalide, reference compound] showed a viability at 500 µM [1, 11] of 88%, a viability at 1500 µM ([1]; Concentration 1500 μM, read-out: Viability rate of DBTRG(%)) of 81% and a viability at 2500 µM ([1]; Concentration 2500 μM, read-out: Viability rate of DBTRG(%)) of 70%. The “killing of brain cancer cells” value ([1]; DBTRG, high dosage of 2500 μM) was “cannot kill brain cancer cells effectively”, the “expression of RNA of MGMT” value (MGMT [2]) was “no significant changes” and the “expression of proteins of MGMT” value (MGMT [3]) was “no significant changes”.

`CCC/C=C1\OC(=O)c2ccccc21` [(Z)-butylidenephthalide] gave a pIC50 [1] of about 3.60, a viability at 125 µM ([1]; Concentration 125 μM, read-out: Viability rate of DBTRG(%)) of 80% and a viability at 250 µM ([1]; Concentration 250 μM, read-out: Viability rate of DBTRG(%)) of 58%. For the same molecule, the viability at 500 µM [1, 11] was 30%, the “growth inhibition of brain cancer cell line” value (“growth inhibition” for short) ([1]; DBTRG, 0 to 400 μM, FIG. 10) was “effectively inhibit the growth” and the “expression of RNA of MGMT” value (MGMT [2]) was “reduced”. For the same molecule, the “growth inhibition” value ([4]; 0 to 400 μM, FIG. 10) was “effectively inhibit the growth”, the pIC50 [5] was 3.35 and the “Relative tumor size (fold)” value ([6]; SC consecutively for 5 days, 50 mg/kg/day) was 2.7 fold. For the same molecule, the “Relative tumor size (fold)” value ([6]; SC consecutively for 5 days, 100 mg/kg/day) was 2.6 fold, the “expression of proteins of MGMT” value (MGMT [3]) was “reduced” and the “growth inhibition” value ([7]; 0 to 400 μM, FIG. 10) was “effectively inhibit the growth”. The Survival rate ([8]; (Z)-butylidenephthalide (50 mg/kg), Day 0) was 100%, the Survival rate ([8]; (Z)-butylidenephthalide (50 mg/kg), Day 5) was 100% and the Survival rate ([8]; (Z)-butylidenephthalide (50 mg/kg), Day 8) was 100%. The Survival rate ([8]; (Z)-butylidenephthalide (50 mg/kg), Day 11) was 100%, the Survival rate ([8]; (Z)-butylidenephthalide (50 mg/kg), Day 14) was 100% and the Survival rate ([8]; (Z)-butylidenephthalide (50 mg/kg), Day 18) was 100%. It also gave a Survival rate ([8]; (Z)-butylidenephthalide (50 mg/kg), Day 21) of 66%, a Survival rate ([8]; (Z)-butylidenephthalide (50 mg/kg), Day 28) of 0% and a Survival rate ([8]; (Z)-butylidenephthalide (50 mg/kg), Day 30) of 0%. It also gave a Survival rate ([8]; (Z)-butylidenephthalide (100 mg/kg), Day 0) of 100%, a Survival rate ([8]; (Z)-butylidenephthalide (100 mg/kg), Day 5) of 100% and a Survival rate ([8]; (Z)-butylidenephthalide (100 mg/kg), Day 8) of 100%. The Survival rate ([8]; (Z)-butylidenephthalide (100 mg/kg), Day 11) was 100%, the Survival rate ([8]; (Z)-butylidenephthalide (100 mg/kg), Day 14) was 100% and the Survival rate ([8]; (Z)-butylidenephthalide (100 mg/kg), Day 18) was 100%. The Survival rate ([8]; (Z)-butylidenephthalide (100 mg/kg), Day 21) was 66%, the Survival rate ([8]; (Z)-butylidenephthalide (100 mg/kg), Day 28) was 0% and the Survival rate ([8]; (Z)-butylidenephthalide (100 mg/kg), Day 30) was 0%. For the same molecule, the “expression of proteins of MGMT” value (MGMT [9]) was “reduced”, the “growth inhibition” value ([10]; 0 to 400 μM, FIG. 10) was “effectively inhibit the growth” and the pIC50 [10] was 3.66.

For `Cn1nnc2c(C(N)=O)ncn2c1=O` [temozolomide], the pIC50 ([1]; DBTRG, single agent, cultured 2 days, MTT) was 2.78, the pIC50 [4, 12] was 3.08 and the pIC50 [5] was under 2.49. For the same molecule, the “Relative tumor size (fold)” value ([6]; PO consecutively for 5 days, 66 mg/kg/day) was 4.3 fold, the pIC50 [7, 12] was 2.78 and the Survival rate ([8]; temozolomide (66 mg/kg), Day 0) was 100%. It also gave a Survival rate ([8]; temozolomide (66 mg/kg), Day 5) of 100%, a Survival rate ([8]; temozolomide (66 mg/kg), Day 8) of 100% and a Survival rate ([8]; temozolomide (66 mg/kg), Day 11) of 66%. It also gave a Survival rate ([8]; temozolomide (66 mg/kg), Day 14) of 66%, a Survival rate ([8]; temozolomide (66 mg/kg), Day 18) of 66% and a Survival rate ([8]; temozolomide (66 mg/kg), Day 21) of 33%. The Survival rate ([8]; temozolomide (66 mg/kg), Day 28) was 0%, the Survival rate ([8]; temozolomide (66 mg/kg), Day 30) was 0% and the pIC50 [10] was 2.92.
